Columns and labels:
[1] = target: T1, Alpha-1A adrenergic receptor (Bos taurus, UniProt P18130); assay: Compound was evaluated for binding affinity at bovine brain Alpha-1 adrenergic receptor in a filtration-based assay using [3H]prazosin as the radioligand
T1 sequence (P18130 whole entry): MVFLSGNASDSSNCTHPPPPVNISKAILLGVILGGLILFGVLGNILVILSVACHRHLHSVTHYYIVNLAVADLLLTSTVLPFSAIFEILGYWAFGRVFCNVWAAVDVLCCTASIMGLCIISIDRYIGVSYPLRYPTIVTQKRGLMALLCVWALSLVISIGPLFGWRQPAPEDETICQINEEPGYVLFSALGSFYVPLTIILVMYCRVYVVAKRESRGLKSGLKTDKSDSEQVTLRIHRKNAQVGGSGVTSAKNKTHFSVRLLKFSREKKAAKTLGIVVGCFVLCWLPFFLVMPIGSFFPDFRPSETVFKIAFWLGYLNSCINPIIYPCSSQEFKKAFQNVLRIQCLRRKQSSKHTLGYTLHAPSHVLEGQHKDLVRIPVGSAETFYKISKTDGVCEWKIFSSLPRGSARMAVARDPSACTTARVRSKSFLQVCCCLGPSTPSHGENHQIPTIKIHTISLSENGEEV

[2] = organism: Mustela putorius furo; assay: Compound was evaluated for the molar concentration required to prolong effective refractory period (ERP) 25% above baseline in ferret isolated right ventricular papillary muscles using a paired pacing protocol; type: functional, Muscle tissue
[3] = tested on: Canis familiaris; assay: Compound was evaluated for the intravenous dose required to prolong relative refractory period (RRP) 20 ms above baseline in chloralose anesthetized dogs using a paired pacing protocol; type: functional; settings: Canis lupus familiaris
[4] = target: T1, Alpha-1A adrenergic receptor; assay: Compound was evaluated for binding affinity at bovine brain Alpha-1 adrenergic receptor determined in a filtration-based assay using [3H]prazosin as the radioligand.

SMILES	IC50 [1] [nM]	IC50 [4] [nM]	EC25 [2] [µM]	ED20 [3] [µg/kg]
CS(=O)(=O)Nc1cccc2c1OC1(CCN(CCc3ccccn3)CC1)CC2=O.Cl.O	–	–	7.4	–
CS(=O)(=O)Nc1ccc2c(c1)CCC1(CCN(CCc3ccc4nonc4c3)CC1)O2.Cl	3000	–	0.054	–
CS(=O)(=O)Nc1ccc2c(c1)C(O)CC1(CCN(CCc3ccc4nonc4c3)CC1)O2.Cl (centres undefined)	2300	–	0.9	200
Cl.O=C1CC2(CCN(CCc3ccccn3)CC2)Oc2ccccc21	–	–	0.16	500
CS(=O)(=O)Nc1ccc2c(c1)C(=O)CC1(CCN(CCc3ccc4nonc4c3)CC1)O2.Cl	–	–	0.013	2.8
CS(=O)(=O)Nc1ccc2c(c1)OC1(CCN(CCc3ccccn3)CC1)CC2=O.Cl.O	–	–	6.6	–
Cc1cccc(CCN2CCC(C(=O)c3ccc(NS(C)(=O)=O)cc3)CC2)n1	–	–	0.058	17.4
CN(CCOc1ccc(NS(C)(=O)=O)cc1)CCc1ccc(NS(C)(=O)=O)cc1 [DOFETILIDE]	–	–	0.018	5.2

Now from value to molecule, other results behind:

IC50 [1] [nM]	IC50 [4] [nM]	SMILES	EC25 [2] [µM]	ED20 [3] [µg/kg]
15000	–	CS(=O)(=O)Nc1ccc(CCN2CCC3(CC2)CC(=O)c2cc(NS(C)(=O)=O)ccc2O3)cc1.Cl	0.074	3
1000	–	CS(=O)(=O)Nc1ccc2c(c1)C(=O)CC1(CCN(CCc3ccc(C#N)cc3)CC1)O2.Cl	0.003	7
100	–	CS(=O)(=O)Nc1ccc2c(c1)C(=O)CC1(CCN(CCc3ccccc3)CC1)O2.Cl	0.007	5
–	900	CS(=O)(=O)Nc1ccc2c(c1)C(=O)CC1(CCN(CCc3ccc([N+](=O)[O-])cc3)CC1)O2.Cl	0.005	–
500	–	CS(=O)(=O)Nc1ccc2c(c1)C(=O)CC1(CCN(CCc3ccccn3)CC1)O2.Cl.O	0.033	10

Reference: ChEMBL document CHEMBL1125329, “4-Oxospiro[benzopyran-2,4'-piperidines] as class III antiarrhythmic agents. Pharmacological studies on 3,4-dihydro-1'-[2-(benzofurazan-5-yl)- ethyl]-6-methanesulfonamidospiro[(2H)-1-benzopyran-2,4'-piperidin]-4-on e (L-691,121)” (J Med Chem, 1992)
